In the kinase profiling compilation of Christmann-Franck et al. (2016):

Key:
Assay in all cases: KINOMEscan competition binding
Settings in all cases: compound 10.0 µM
PAK7 (human) = PAK7 (human) (UniProt Q9P286)
ACVRL1 (human) = ACVRL1 (human) (UniProt P37023)
LCK (human) = LCK (human) (UniProt P06239)
PKN2 (human) = PKN2 (human) (UniProt Q16513)
RIPK1 (human) = RIPK1 (human) (UniProt Q13546)
IKBKE (human) = IKBKE (human) (UniProt Q14164)
ACVR1 (human) = ACVR1 (human) (UniProt Q04771)
EPHA4 (human) = EPHA4 (human) (UniProt P54764)
EPHA7 (human) = EPHA7 (human) (UniProt Q15375)
SRPK2 (human) = SRPK2 (human) (UniProt P78362)
AURKC (human) = AURKC (human) (UniProt Q9UQB9)
CDK11B (human) = CDK11B (human) (UniProt P21127)
CSNK1G3 (human) = CSNK1G3 (human) (UniProt Q9Y6M4)
TNK2 (human) = TNK2 (human) (UniProt Q07912)
MAP3K12 (human) = MAP3K12 (human) (UniProt Q12852)
MAP2K4 (human) = MAP2K4 (human) (UniProt P45985)
STK32C (human) = STK32C (human) (UniProt Q86UX6)
FLT1 (human) = FLT1 (human) (UniProt P17948)
PDGFRB (human) = PDGFRB (human) (UniProt P09619)
NEK1 (human) = NEK1 (human) (UniProt Q96PY6)
EPHA3 (human) = EPHA3 (human) (UniProt P29320)
CAMKK1 (human) = CAMKK1 (human) (UniProt Q8N5S9)
RPS6KA6 KD2 (human) = RPS6KA6 KD2 (human) (UniProt Q9UK32)
FES (human) = FES (human) (UniProt P07332)
MKNK2 (human) = MKNK2 (human) (UniProt Q9HBH9)
CAMK4 (human) = CAMK4 (human) (UniProt Q16566)
[1] = test system: ABL1 (human), P00519 [Y253F]
AKT1 (human) = AKT1 (human) (UniProt P31749)
MAPK8 (human) = MAPK8 (human) (UniProt P45983)
SRMS (human) = SRMS (human) (UniProt Q9H3Y6)
MAP4K5 (human) = MAP4K5 (human) (UniProt Q9Y4K4)

Measured: kinase still bound, per cent of control

Sequence of CSNK1G3 (human) (Q9Y6M4 whole entry, looked up): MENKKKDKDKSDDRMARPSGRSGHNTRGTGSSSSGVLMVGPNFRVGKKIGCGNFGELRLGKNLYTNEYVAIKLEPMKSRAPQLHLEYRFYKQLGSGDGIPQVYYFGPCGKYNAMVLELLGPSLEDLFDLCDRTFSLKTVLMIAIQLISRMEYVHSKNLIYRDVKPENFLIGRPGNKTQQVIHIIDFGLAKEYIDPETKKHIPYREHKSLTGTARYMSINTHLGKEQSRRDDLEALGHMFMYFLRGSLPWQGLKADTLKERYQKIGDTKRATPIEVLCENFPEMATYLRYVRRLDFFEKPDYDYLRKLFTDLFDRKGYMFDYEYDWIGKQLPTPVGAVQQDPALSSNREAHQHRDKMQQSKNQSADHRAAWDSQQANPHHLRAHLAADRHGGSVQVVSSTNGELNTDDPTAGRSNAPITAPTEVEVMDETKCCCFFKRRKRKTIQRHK
Sequence of FLT1 (human) (P17948 whole entry, looked up): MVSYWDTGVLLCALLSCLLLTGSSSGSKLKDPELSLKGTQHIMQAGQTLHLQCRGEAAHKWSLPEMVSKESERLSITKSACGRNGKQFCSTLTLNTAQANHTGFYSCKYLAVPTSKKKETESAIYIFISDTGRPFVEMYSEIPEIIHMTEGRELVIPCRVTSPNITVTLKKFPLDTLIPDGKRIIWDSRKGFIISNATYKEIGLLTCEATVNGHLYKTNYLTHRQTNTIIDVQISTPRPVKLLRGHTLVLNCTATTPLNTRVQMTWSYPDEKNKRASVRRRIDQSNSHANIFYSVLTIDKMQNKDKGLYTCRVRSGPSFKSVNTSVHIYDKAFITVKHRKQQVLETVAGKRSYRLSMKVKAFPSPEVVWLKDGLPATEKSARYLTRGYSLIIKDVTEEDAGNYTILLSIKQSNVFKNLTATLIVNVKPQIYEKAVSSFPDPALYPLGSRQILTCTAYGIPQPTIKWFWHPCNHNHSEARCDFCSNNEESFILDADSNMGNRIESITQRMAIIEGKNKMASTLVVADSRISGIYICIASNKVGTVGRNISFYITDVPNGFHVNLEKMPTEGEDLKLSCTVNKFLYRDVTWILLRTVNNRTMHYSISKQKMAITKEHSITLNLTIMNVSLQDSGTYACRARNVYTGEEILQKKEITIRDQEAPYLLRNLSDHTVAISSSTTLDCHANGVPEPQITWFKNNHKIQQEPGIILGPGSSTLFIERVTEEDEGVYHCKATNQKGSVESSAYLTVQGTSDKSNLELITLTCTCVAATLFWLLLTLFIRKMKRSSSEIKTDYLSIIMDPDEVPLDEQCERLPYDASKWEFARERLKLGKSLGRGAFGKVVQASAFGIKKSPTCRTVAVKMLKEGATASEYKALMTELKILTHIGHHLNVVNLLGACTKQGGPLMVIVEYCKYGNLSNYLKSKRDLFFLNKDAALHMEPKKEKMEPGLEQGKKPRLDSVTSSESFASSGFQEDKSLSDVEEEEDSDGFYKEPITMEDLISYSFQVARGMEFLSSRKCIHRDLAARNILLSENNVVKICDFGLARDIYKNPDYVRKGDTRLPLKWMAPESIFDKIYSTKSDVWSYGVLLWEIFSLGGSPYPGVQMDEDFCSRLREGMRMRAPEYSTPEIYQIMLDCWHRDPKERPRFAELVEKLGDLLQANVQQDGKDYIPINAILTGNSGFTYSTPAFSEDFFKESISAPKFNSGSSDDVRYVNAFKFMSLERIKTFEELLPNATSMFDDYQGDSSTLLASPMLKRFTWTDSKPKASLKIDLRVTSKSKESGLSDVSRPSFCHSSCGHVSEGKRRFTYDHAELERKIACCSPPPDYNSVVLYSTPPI
Sequence of PKN2 (human) (Q16513 whole entry, looked up): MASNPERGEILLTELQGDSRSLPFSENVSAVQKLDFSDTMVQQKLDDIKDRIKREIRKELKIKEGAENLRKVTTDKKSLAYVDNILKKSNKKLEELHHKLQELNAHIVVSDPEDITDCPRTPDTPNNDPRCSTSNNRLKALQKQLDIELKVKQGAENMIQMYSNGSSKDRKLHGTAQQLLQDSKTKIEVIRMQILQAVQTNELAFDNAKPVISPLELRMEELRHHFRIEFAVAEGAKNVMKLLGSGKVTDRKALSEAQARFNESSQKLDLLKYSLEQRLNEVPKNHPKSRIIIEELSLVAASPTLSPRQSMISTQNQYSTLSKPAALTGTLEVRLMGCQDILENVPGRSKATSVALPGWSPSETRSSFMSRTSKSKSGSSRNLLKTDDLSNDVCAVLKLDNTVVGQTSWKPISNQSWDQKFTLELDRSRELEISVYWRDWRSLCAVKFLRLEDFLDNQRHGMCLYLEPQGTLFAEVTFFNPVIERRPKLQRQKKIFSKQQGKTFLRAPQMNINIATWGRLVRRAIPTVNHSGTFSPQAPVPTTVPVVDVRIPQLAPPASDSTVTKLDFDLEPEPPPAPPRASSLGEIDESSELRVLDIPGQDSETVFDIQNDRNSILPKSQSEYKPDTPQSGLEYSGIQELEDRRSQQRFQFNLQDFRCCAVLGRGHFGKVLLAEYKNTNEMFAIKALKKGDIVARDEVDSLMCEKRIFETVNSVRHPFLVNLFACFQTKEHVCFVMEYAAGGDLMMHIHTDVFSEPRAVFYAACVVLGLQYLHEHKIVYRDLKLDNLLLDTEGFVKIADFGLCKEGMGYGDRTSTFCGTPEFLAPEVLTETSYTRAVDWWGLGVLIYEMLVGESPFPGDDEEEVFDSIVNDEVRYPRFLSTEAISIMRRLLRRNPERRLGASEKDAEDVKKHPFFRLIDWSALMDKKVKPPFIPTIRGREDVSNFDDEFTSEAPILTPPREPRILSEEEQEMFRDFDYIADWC
Sequence of LCK (human) (P06239 whole entry, looked up): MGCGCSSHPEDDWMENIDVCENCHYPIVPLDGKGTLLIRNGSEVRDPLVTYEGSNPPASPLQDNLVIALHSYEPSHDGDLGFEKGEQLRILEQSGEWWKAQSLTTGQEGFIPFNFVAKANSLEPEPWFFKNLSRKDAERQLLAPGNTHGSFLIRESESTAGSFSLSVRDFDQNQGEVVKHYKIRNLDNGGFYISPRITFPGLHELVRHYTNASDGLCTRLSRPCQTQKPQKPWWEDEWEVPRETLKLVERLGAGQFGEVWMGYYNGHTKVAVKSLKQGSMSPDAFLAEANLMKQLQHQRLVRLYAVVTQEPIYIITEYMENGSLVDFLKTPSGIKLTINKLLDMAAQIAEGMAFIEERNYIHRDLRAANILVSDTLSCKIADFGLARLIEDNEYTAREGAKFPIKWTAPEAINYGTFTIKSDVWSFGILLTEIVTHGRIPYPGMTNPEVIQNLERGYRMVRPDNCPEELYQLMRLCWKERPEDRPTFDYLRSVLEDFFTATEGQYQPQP
Sequence of FES (human) (P07332 whole entry, looked up): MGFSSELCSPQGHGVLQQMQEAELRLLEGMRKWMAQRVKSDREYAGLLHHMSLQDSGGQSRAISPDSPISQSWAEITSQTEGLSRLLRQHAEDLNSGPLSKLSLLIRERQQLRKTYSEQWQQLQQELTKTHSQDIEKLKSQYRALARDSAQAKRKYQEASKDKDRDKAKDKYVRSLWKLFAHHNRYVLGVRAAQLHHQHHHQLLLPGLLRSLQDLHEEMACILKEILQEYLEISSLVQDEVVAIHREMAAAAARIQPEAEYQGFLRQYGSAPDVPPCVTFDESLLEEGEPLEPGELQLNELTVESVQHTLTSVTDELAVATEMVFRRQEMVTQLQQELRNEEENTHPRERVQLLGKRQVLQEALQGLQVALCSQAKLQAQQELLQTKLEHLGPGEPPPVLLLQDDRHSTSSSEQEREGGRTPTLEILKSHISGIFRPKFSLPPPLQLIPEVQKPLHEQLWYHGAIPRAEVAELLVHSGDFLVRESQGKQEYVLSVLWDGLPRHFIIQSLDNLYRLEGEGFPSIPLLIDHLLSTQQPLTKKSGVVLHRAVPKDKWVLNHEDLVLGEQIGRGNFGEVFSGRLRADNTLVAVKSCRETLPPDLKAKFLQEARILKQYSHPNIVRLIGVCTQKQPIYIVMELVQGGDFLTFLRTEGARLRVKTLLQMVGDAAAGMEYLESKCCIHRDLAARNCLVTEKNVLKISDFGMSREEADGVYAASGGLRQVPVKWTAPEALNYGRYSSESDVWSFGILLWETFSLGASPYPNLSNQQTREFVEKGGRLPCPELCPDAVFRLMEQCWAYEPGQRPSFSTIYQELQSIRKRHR
Sequence of CAMK4 (human) (Q16566 whole entry, looked up): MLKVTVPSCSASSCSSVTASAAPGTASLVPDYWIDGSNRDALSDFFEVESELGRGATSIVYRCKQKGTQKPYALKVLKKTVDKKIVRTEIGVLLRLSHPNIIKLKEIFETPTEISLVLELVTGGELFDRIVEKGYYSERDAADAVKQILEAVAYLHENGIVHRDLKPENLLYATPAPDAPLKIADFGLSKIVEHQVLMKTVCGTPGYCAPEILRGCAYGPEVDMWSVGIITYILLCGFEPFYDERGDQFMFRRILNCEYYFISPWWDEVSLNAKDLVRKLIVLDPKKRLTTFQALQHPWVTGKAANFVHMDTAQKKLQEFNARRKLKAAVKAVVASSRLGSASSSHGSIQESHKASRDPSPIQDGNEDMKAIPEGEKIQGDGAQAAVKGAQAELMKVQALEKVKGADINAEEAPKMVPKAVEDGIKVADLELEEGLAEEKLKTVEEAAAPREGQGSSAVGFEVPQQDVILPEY
Sequence of MKNK2 (human) (Q9HBH9 whole entry, looked up): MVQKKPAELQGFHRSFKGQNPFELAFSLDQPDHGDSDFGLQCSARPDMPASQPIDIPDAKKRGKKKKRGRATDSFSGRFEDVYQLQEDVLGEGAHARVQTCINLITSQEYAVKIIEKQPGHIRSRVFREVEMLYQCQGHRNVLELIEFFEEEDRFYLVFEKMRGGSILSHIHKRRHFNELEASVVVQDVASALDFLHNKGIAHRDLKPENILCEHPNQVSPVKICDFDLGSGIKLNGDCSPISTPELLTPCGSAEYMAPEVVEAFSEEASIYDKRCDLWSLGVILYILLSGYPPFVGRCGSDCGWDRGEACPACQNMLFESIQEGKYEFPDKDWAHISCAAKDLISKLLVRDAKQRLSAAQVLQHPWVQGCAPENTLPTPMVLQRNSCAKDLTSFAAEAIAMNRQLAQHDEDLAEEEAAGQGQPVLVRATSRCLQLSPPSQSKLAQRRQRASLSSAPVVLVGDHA

Cc1n[nH]c2ccc(-c3cncc(OC[C@@H](N)Cc4c[nH]c5ccccc45)c3)cc12
100%: ACVRL1 (human) | LCK (human) | RIPK1 (human) | ACVR1 (human) | EPHA4 (human) | EPHA7 (human) | CDK11B (human) | TNK2 (human) | MAP3K12 (human) | MAP2K4 (human) | STK32C (human) | FLT1 (human) | NEK1 (human) | EPHA3 (human) | RPS6KA6 KD2 (human) | FES (human) | [1] | MAPK8 (human) | SRMS (human)
22%: SRPK2 (human)
13%: MKNK2 (human)
34%: AURKC (human)
24%: IKBKE (human)
2.4%: PKN2 (human) | CAMKK1 (human)
1.8%: AKT1 (human)
0.15%: CSNK1G3 (human)
28%: PDGFRB (human)
16%: PAK7 (human)
12%: CAMK4 (human)

CNC(=O)c1ccc(Nc2cc(Nc3ccccc3S(=O)(=O)C(C)C)c3cc[nH]c3n2)nc1
1%: TNK2 (human)
12%: FES (human) | [1]
22%: CSNK1G3 (human)
8.4%: PDGFRB (human)
7.3%: MAPK8 (human)
5.4%: PKN2 (human)
0.3%: LCK (human)
1.8%: MAP4K5 (human)
1.7%: EPHA7 (human)
0.4%: MAP3K12 (human)
100%: PAK7 (human) | ACVRL1 (human) | RIPK1 (human) | IKBKE (human) | ACVR1 (human) | EPHA4 (human) | CDK11B (human) | MAP2K4 (human) | STK32C (human) | FLT1 (human) | NEK1 (human) | EPHA3 (human) | CAMKK1 (human) | RPS6KA6 KD2 (human) | MKNK2 (human) | CAMK4 (human) | AKT1 (human) | SRMS (human)
0.65%: AURKC (human)
24%: SRPK2 (human)

C=CC(=O)Nc1ccc(CN(C(=O)Nc2c(Cl)c(OC)cc(OC)c2Cl)c2cc(Nc3ccc(N4CCN(C)CC4)cc3)ncn2)cc1
2.3%: MAP4K5 (human)
4%: FES (human)
0.2%: LCK (human)
100%: PAK7 (human) | ACVRL1 (human) | PKN2 (human) | RIPK1 (human) | IKBKE (human) | ACVR1 (human) | EPHA4 (human) | EPHA7 (human) | SRPK2 (human) | AURKC (human) | CDK11B (human) | CSNK1G3 (human) | MAP3K12 (human) | MAP2K4 (human) | STK32C (human) | NEK1 (human) | EPHA3 (human) | CAMKK1 (human) | RPS6KA6 KD2 (human) | MKNK2 (human) | CAMK4 (human) | AKT1 (human) | MAPK8 (human) | SRMS (human)
1.7%: TNK2 (human)
0.3%: FLT1 (human)
0%: PDGFRB (human)
13%: [1]

CCN(CC)CCCCNc1ncc2cc(-c3cc(OC)cc(OC)c3)c(NC(=O)NC(C)(C)C)nc2n1
100%: PAK7 (human) | ACVRL1 (human) | PKN2 (human) | RIPK1 (human) | IKBKE (human) | ACVR1 (human) | EPHA4 (human) | EPHA7 (human) | SRPK2 (human) | AURKC (human) | CDK11B (human) | CSNK1G3 (human) | TNK2 (human) | MAP3K12 (human) | MAP2K4 (human) | MAP4K5 (human) | STK32C (human) | NEK1 (human) | EPHA3 (human) | CAMKK1 (human) | RPS6KA6 KD2 (human) | FES (human) | MKNK2 (human) | CAMK4 (human) | [1] | AKT1 (human) | MAPK8 (human) | SRMS (human)
22%: LCK (human)
8%: FLT1 (human)
38%: PDGFRB (human)
